Where two headings read alike, the source gives them in different places. Marks after values point to notes of the source that are not given here.
Tests used:
Zucker rats = conditions: obese Zucker rats, 30 days, fenofibrate 30 mg/kg p.o. once daily and/or metformin 150 mg/kg p.o. twice daily; for Body weight gain: mean ± SEM, n=8
Protocol: Studies were designed to evaluate the effects of fenofibrate, a PPARα agonist, and metformin as a combination therapy, on body weight in Zucker rats.
Male homozygous Zucker rats of 9 to 11 weeks of age and their lean controls were randomised into groups of 8, based on body weight and fasting plasma insulin levels.
The experimental groups were: • Lean rats, untreated; • Obese rats, treated with the vehicle p.o., twice daily • Obese rats, treated with Fenofibrate, 30 mg/kg, p.o., once daily • Obese rats, treated with Metformin, 150 mg/kg, p.o., twice daily • Obese rats, treated with Fenofibrate, 30 mg/kg, p.o., once daily and metformin, 150 mg/kg, p.o., twice daily.
Body weight was recorded every day during 30 days.

ob/ob mice = conditions: for Serum triglycerides T0 + 10: after 10 days of treatment once a day, 100 mg/kg of each drug; for Serum triglycerides T0 + 10 / Serum triglycerides T0: mean ± sem, n=10; for Serum triglycerides T0: beginning of study (T0, baseline), groups later treated once a day with 100 mg/kg of each drug
Protocol: Studies were designed to evaluate the effects of fenofibrate, a PPARα agonist, and metformin as a combination therapy, on triglycerides level in ob/ob mice.
Male homozygous C57BL/Ks/Ola/Hsd/lep ob/ob mice were stabilized for 2 weeks in the animal facilities in a temperature-, humidity- and light-controlled room (21-23° C., 12-12 h light-dark cycle). […] After acclimatization, they were randomized into groups of 10 based on body weight, as follows:
Met 100=mice treated once a day with metformin, 100 mg/kg
Feno 100=mice treated once a day with fenofibrate, 100 mg/kg
Feno100-Met100=mice treated once a day with fenofibrate, 100 mg/kg and metformin, 100 mg/kg.
Serum triglycerides (expressed in g/l) were measured at the beginning and the end of the study for each group.
Statistics: All data were subjected to covariance analysis followed by Tukey test.

db/db mice = conditions: for Triglycerides % var. T0/T15: 14 days gavage; for Triglycerides T0: T0 (baseline); for Triglycerides T0 / Triglycerides T15: mean ± SEM; for Triglycerides T15: T15 after 14 days gavage
Protocol: Studies were designed to evaluate the effects of fenofibrate, a PPARα agonist, and metformin as a combination therapy, on triglycerides level in db/db mice.
Male 11/12 weeks old […] J Rj-db (db/db) mice (Janvier, France) were housed in a temperature (19.5-24.5° C.), relative humidity (40-70%) and 12-12 h light-dark cycle (light 7:00 a.m. to 7:00 p.m.)-controlled room, with ad libitum access to filtered (0.22 μm) tap-water and irradiated pelleted laboratory chow (ref. A04, U.A.R., France) throughout the study. They were housed 5 per cage and a 21-day acclimatization period was observed.
The mice were treated during 14 consecutive days (T1 to T14), with morning and afternoon gavages with the various treatments as described below.
At T15, the mice were weighed and blood samples collected without anticoagulant by retro-orbital puncture under CO2/O2 anesthesia.
Triglycerides were measured at T0 and T15 using the multi-parametric analyzer.
Veh/Veh=Vehicle in morning/Vehicle in the afternoon
A300/Veh=metformin, 300 mg/kg in the morning/Vehicle in the afternoon
B100/B100=fenofibrate, 100 mg/kg in the morning/fenofibrate, 100 […]
A300B100/B100=metformin, 300 mg/kg in the morning, and fenofibrate, 100 mg/kg in the morning/fenofibrate, 100 mg/kg in the afternoon
A100/Veh=metformin, 100 mg/kg in the morning/Vehicle in the afternoon
B30/B30=fenofibrate, 30 mg/kg in the morning/fenofibrate, 30 mg/kg in the afternoon
A100B30/B30=metformin, 100 mg/kg in the morning, and fenofibrate, 30 mg/kg […]/fenofibrate, 30 mg/kg in the afternoon

[1] = metformin 100 mg/kg morning and/or fenofibrate 30 mg/kg twice daily
[2] = metformin 300 mg/kg morning and/or fenofibrate 100 mg/kg morning and afternoon
[3] = high-dose groups: metformin 300 mg/kg morning and/or fenofibrate 100 mg/kg morning and afternoon
[4] = low-dose groups: metformin 100 mg/kg morning and/or fenofibrate 30 mg/kg twice daily

| Compound | Body weight gain (% of change vs vehicle treated group) (Zucker rats) | Body weight gain (Zucker rats) | Serum triglycerides T0 + 10 (ob/ob mice) | Serum triglycerides T0 (ob/ob mice) | Triglycerides % var. T0/T15 (db/db mice; [1]) | Triglycerides % var. T0/T15 (db/db mice; [2]) | Triglycerides T0 (db/db mice; [3]) | Triglycerides T0 (db/db mice; [4]) | Triglycerides T15 (db/db mice; [1]) | Triglycerides T15 (db/db mice; [2]) | Effect on triglycerides level (in words) (ob/ob mice; 10 days, 100 mg/kg once a day) | Effect on triglycerides level (in words) (db/db mice; 14 days treatment) |
| --- | --- | --- | --- | --- | --- | --- | --- | --- | --- | --- | --- | --- |
| CC(C)OC(=O)C(C)(C)Oc1ccc(C(=O)c2ccc(Cl)cc2)cc1 [Fenofibrate, fenofibrate] | −26% | 52.0 ± 5.8 g | 0.69 ± 0.03 g/L | 0.72 ± 0.06 g/L | −42.3* % | −53.5* % | 1.89 ± 0.13 g/L | 1.72 ± 0.12 g/L | 0.97 ± 0.08 g/L | 0.85 ± 0.08 g/L |  |  |
| CN(C)C(=N)N=C(N)N [Metformin, metformin] | −5% | 67.2 ± 4.0 g | 0.74 ± 0.04 g/L | 0.68 ± 0.03 g/L | 7.3° % | −3.3° % | 1.81 ± 0.14 g/L | 1.68 ± 0.12 g/L | 1.79 ± 0.16° g/l | 1.67 ± 0.06 g/L | no effects | no reduction in triglycerides level |
